Data on six compounds can be found in patent publication US8710231B2, “Inhibitor of casein kinase 1delta and casein kinase 1E” (Pharmadesign, Inc., priority 2010, dated 2014).

Series [1] deals with N2A cells (N2A-APP695 cells). Particulars: N2A-APP695 cells excessively expressing constitutively active casein kinase 1ε; cited from earlier work.
Series [2] relates to human pancreatic cancer cell line. Particulars: added in vitro; cited from earlier work.
Series [3] concerns pancreatic cancer cell line transplanted into the subcutis of a mouse. As to conditions: subcutaneous transplant; cited from earlier work.
Series [4] deals with rats. As to conditions: subcutaneous administration; cited from earlier work.
In another series the target is p38α (Homo sapiens, UniProt Q16539). Particulars: cited from earlier work.
For series [5], the target named is T1, human recombinant casein kinase 1δ (Homo sapiens, UniProt P48730).
T1 construct: purchased INVITROGEN PV3665
Kind of series: Casein kinase 1δ inhibition, Z'-LYTE Ser/Thr 11 Peptide assay. As to conditions: 0.3 μg/ml compound; for inhibition at 0.3 µg/mL: 20 μM ATP, 3.0 or 1.0 μg/ml enzyme, formula (2) high-purity from Scheme 2, read-out: Casein kinase 1δ inhibition percentage. Type of series: biochemical. As for the experimental part: (§1) The activity of the present compound to inhibit casein kinase 1δ and casein kinase 1ε was measured using human recombinant casein kinase 1δ (INVITROGEN; Cat No. PV3665) or human recombinant casein kinase 1ε (INVITROGEN; Cat No. PV3500) as an enzyme source, and also using Z′-LYTE Ser/Thr 11 Peptide (INVITROGEN; Cat No. PV3671) as a phosphorylation substrate. The composition (final concentration) applied during each inhibitory activity measurement assay is as follows.
Assay for Casein Kinase 1δ
3.0 μg/ml or 1.0 μg/ml casein kinase 1δ, 0.3 μg/ml the present compound, 1.0 μM Peptide, 20 μM ATP, 50 mM HEPES (pH 7.4), 10 mM MgCl2, 0.01% Brij-35, and 0.5% DMSO
(§2) The present compound was previously allowed to react with the enzyme at room temperature, for 15 minutes. Two hours later, the remaining phosphorylation activity was measured using Z′-LYTE Kinase Assay Kit-Ser/Thr 11 Peptide (INVITROGEN; Cat No. PV3670).
(§3) The inhibition percentage of the present compound against the phosphotylation activity of each of casein kinase 1δ and casein kinase 1ε to which the present compound had not been added, was calculated.

Series [6] addresses T2, human recombinant casein kinase 1ε (Homo sapiens, UniProt P49674).
T2 construct: purchased INVITROGEN PV3500
Kind of series: Casein kinase 1ε inhibition, Z'-LYTE Ser/Thr 11 Peptide assay. It is filed as biochemical. As to conditions: 0.3 μg/ml compound; for inhibition at 0.3 µg/mL: 20 μM ATP, 0.5 μg/ml enzyme, formula (2) high-purity from Scheme 2, read-out: Casein kinase1ε inhibition percentage. As for the experimental part: as §1
Assay for Casein Kinase 1ε
0.5 μg/ml casein kinase 1ε, 0.3 μg/ml the present compound, 1.0 μM Peptide, 20 μM ATP, 50 mM HEPES (pH 7.4), 10 mM MgCl2, 0.01% Brij-35, and 0.5% DMSO
as §2, §3

The nature of series [7]: Solubility of each compound in a DMSO solution. It is filed as physicochemical. The text has this:
In terms of the solubility of each compound in a DMSO solution, a comparison was made among the compound represented by the Formula (2), the compounds represented by the formulae (11) and (14), and a compound in which a halogen atom or the like has not been introduced into the thiophene ring of the compound of the formula (2) (4-((6-methoxy-3-pyridinyl)methylene)-2-(2-thienyl)-5(4H)-oxazolone). The compound represented by the formula (2) and the compounds represented by the formulae (11) and (14) were easily dissolved in final concentrations of 35 mM, 10 mM and 20 mM, respectively, in the DMSO solution. On the other hand, the compound in which a halogen atom or the like has not been introduced into the thiophene ring of the compound of the formula (2) was dissolved in a final concentration of 10 mM in the DMSO solution by being intensively stirred.

In series [8] the test system is various types of kinases (MAPKAPK2, AurA, PKCζ, RSK1, PRAK, Erk1, PKD2, CHK1, ABL, FYN, LYN, CHK2, MET, LCK, SRC, GSK3β, Erk2, PKA, AKT2, INSR, p38α, AKT1 …). Kind of series: Inhibitory specificity to various types of kinases, Profiler Pro kit. It is filed as biochemical. Particulars: final concentration of 10 μM, 1 μM or 0.1 μM; reacted 15 minutes. On the procedure:
The inhibitory specificity of the casein kinase 1δ to and casein kinase 1ε inhibiting compounds to various types of kinases can be examined using Profiler Pro kit (manufactured by Caliper Life Sciences) in accordance with the method described in an instruction manual included therewith. The compounds represented by the formulae (2), (11) and (14) were each allowed to react with various types of kinases for 15 minutes, resulting in the final concentration of 10 μM, 1 μM or 0.1 μM. After completion of the reaction, enzyme activity was examined.

For series [9], the target named is Dual specificity tyrosine-phosphorylation-regulated kinase 1A (DYRK1A) (Homo sapiens, UniProt Q13627). Kind of series: DYRK1A inhibition, Profiler Pro kit method. Type of series: biochemical. As to conditions: compound 1 μM; read-out: DYRK1A enzyme activity inhibition percentage. The text has this: As with casein kinase 1δ, this DYRK1A has been known as a candidate kinase for phosphorylating tau proteins, and also as a kinase for controlling circadian rhythm.

Series [10] has as its target T3, human recombinant casein kinase 1δ (substrate human recombinant tau) (Homo sapiens, UniProt P48730).
T3 construct: purchased Carna Biosciences 03-103
Kind of series: Casein kinase 1δ inhibition with tau as substrate (Phos-tag Western blotting). Type of series: biochemical. As to conditions: compound 25 μM to 1 μM, 200 μM ATP, vs reaction solution without compound. As for the experimental part: The activity of the present compound to inhibit casein kinase 1δ having tau as a substrate can be examined using human recombinant casein kinase 1δ (Carna Biosciences; Cat No. 03-103) as an enzyme source and also using human recombinant tau (Sigma-Aldrich; Cat No. T0576) as a phosphorylation substrate. The composition (final concentration) applied during the inhibitory activity measurement assay is as follows.
25 μg/ml casein kinase 1δ, 10 μg/ml tau, the present compound (25 μM to 1 μM), 200 μM ATP, 50 mM HEPES (pH7.4), 10 mM MgCl2, 0.01% Brij-35, 200 μM Na3VO4, and 0.25% DMSO
The present compound has previously been allowed to react with the enzyme at room temperature for 15 minutes, and tau is then added to the reaction product. Thereafter, a phosphorylation reaction is carried out for 2 hours. After completion of the phosphorylation reaction, the reaction solution is subjected to Western blotting, so that the phosphorylation of the human recombinant tau transcribed on a PVDF membrane is detected using Phos-tag (NARD Institute, Ltd.; Cat No. BTL-104) according to a chemiluminescence method (ECL Plus; GE Healthcare; Cat No. RPN2132). The PVDF membrane after detection of the phosphorylation reaction is deprobed in accordance with the protocols of the Phos-tag, and thereafter, a total tau protein content can be detected by an antibody reaction. […]
(In general: A western blot detects proteins with antibodies after separation by electrophoresis.)

Series [11] deals with rats. Kind of series: Rat circadian rhythm disorder model (momentum and non-REM sleep under LD conditions). Type of series: in vivo. Particulars: for momentum / non-REM sleep amount: 60 mg/kg intraperitoneal immediately before dark period, vs untreated rats. On the procedure: Specifically, rats were acclimatized for one or more weeks under light/dark (LD) conditions consisting of a light period for 12 hours and a dark period for 12 hours. Immediately before the beginning of the dark period, the compound represented by the formula (11) was mixed with a solubilizing agent, and the mixture was intraperitoneally administered to each rat at a dose of 60 mg/kg. […] On the other hand, with regard to a compound in which as halogen group or the like had not been introduced into the thiophene ring of the compound represented by the formula (2) ((4-((6-methoxy-3-pyridinyl)methylene)-2-(2-thienyl)-5(4H)-oxazolone)), the same test as described above was carried out.

The mark [12] stands for this setting: low-purity compound obtained by Scheme 1.

T2 sequence (P49674 whole entry): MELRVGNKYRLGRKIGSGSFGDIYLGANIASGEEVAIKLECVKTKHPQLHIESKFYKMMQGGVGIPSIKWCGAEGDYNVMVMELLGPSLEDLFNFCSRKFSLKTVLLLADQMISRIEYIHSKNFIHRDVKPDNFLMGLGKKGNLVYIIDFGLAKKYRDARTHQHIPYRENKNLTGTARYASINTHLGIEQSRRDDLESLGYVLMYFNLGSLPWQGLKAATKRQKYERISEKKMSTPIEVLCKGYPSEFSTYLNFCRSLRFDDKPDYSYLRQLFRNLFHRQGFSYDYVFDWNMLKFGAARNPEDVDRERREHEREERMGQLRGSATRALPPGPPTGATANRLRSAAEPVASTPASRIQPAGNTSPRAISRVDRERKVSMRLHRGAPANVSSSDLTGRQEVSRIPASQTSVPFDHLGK
T1 sequence (P48730 whole entry): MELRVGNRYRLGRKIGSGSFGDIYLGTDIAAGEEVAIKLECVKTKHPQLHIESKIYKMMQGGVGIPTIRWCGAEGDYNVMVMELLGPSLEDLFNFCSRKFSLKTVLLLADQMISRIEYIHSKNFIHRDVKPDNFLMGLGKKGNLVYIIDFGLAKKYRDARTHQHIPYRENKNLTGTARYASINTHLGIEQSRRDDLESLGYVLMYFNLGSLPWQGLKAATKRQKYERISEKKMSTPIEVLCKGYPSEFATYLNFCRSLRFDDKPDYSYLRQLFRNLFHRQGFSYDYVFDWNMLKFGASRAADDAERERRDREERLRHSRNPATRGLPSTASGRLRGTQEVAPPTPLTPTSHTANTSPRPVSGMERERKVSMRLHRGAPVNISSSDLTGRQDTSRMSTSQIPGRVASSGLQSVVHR
T3 sequence (P48730 whole entry): as above
p38α, sequence (Q16539 whole entry): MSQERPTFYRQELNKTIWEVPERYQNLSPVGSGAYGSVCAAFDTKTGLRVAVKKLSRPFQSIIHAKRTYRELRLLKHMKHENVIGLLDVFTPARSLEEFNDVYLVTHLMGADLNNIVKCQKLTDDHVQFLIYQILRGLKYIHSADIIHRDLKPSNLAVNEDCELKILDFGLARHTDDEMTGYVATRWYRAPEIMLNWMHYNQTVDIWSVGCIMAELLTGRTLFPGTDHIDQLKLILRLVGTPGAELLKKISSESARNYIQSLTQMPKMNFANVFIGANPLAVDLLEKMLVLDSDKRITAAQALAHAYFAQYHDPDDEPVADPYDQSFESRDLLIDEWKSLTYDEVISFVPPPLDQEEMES

As for `COc1cc(OC)c(C=C2C(O)=Nc3ccccc32)c(OC)c1` [IC261], in series [1], the “amounts of Aβ40 and Aβ42” value is given as “decreased”. Also, in series [2], the cell growth result is reported as “suppression of the cell growth”. Also, the “growth of tumor cells” value in series [3] is listed as “significant effect of suppressing the growth of tumor cells”.

As to `Nc1nccc(-c2c(-c3ccc(F)cc3)ncn2C2CCCCC2)n1` [PF-670462, 4-[3-cyclohexyl-5-(4-fluoro-phenyl)-3H-imidazol-4-yl]-pyrimidin-2-ylamine], the “phase of circadian rhythm” value in the series on rats [4] is “significantly delayed”. On p38α, the “inhibitory action against p38α” value was “exhibit inhibitory action”.

Regarding `COc1ccc(/C=C2\N=C(c3ccc(F)s3)OC2=O)cn1` [Formula (2), 4-((6-Methoxy-3-pyridinyl)methylene)-2-(5-fluoro-2-thienyl)-5(4H)-oxazolone], the inhibition – broadly, the change of the read-out against control, counted positive when it falls – at 0.3 µg/mL worked out at 83% in [5] and 97.7% in series [6]. In addition, the “inhibitory activity against casein kinase 1δ” value in [5] (setting [12]) is given as “significant inhibitory activity”. In series [6] (setting [12]), the “inhibitory activity against casein kinase 1ε” value is on record as “significant inhibitory activity”. Further, the “final concentration dissolved in the DMSO solution” value (“final concentration dissolved” below) in [7] (easily dissolved) is reported as 35 mM. For the same compound, the “inhibitory activity against various types of kinases causing concerns about side effects” value in series [8] is listed as “did not have significant inhibitory activity”. For the same compound, the inhibition at 1 µM in series [9] was 65%. The “inhibition of phosphorylation of tau by casein kinase 1δ (phosphorylation rate of tau)” value in [10] is recorded as “significant inhibition”.

For `COc1ccc(/C=C2\N=C(c3ccc(Br)s3)OC2=O)cn1` [Formula (14)], the results for the inhibition at 0.3 µg/mL in series [5] and in series [6] were 77.8% and 95%, respectively. The “final concentration dissolved” value in series [7] (easily dissolved) was 20 mM. The “inhibitory activity against various types of kinases causing concerns about side effects” value in series [8] is on record as “did not have significant inhibitory activity”. Further, the inhibition at 1 µM in series [9] came out at 85%.

`COc1ccc(/C=C2\N=C(c3ccc(Cl)s3)OC2=O)cn1` [Formula (11), 4-((6-Methoxy-3-pyridinyl)methylene)-2-(5-chloro-2-thienyl)-5(4H)-oxazolone]: the inhibition at 0.3 µg/mL in [5] was 77.9%. The inhibition at 0.3 µg/mL in [6] is 94.8%. Moreover, the “final concentration dissolved” value in series [7] (easily dissolved) is 10 mM. The “inhibitory activity against various types of kinases causing concerns about side effects” value in [8] is “did not have significant inhibitory activity”. Moreover, the inhibition at 1 µM in series [9] came to 78%. For the same compound, in the series with rats [11], the momentum entry is “statistically significant reduction” and the non-REM sleep amount entry is “increase”. Further, the “medicinal effect compared with the compound without halogen on the thiophene ring” value in the series on rats [11] (same test) is “significantly higher”. In [10], the “inhibition of phosphorylation of tau by casein kinase 1δ (phosphorylation rate of tau)” value is listed as “significant inhibition”.

Consider `COc1ccc(C=C2N=C(c3cccs3)OC2=O)cn1` [4-((6-methoxy-3-pyridinyl)methylene)-2-(2-thienyl)-5(4H)-oxazolone, reference compound], for which the “final concentration dissolved” value in [7] (dissolved by being intensively stirred) is 10 mM. Besides, in the series on rats [11], the momentum entry is given as “significant reduction” and the non-REM sleep amount entry is given as “increase”.
